B1: α2-antiplasma: positive control in the platelet aggregation assay (protein, UniProt P08697 40-491, looked up)
Alpha-2-antiplasmin: NQEQVSPLTLLKLGNQEPGGQTALKSPPGVCSRDPTPEQTHRLARAMMAFTADLFSLVAQTSTCPNLILSPLSVALALSHLALGAQNHTLQRLQQVLHAGSGPCLPHLLSRLCQDLGPGAFRLAARMYLQKGFPIKEDFLEQSEQLFGAKPVSLTGKQEDDLANINQWVKEATEGKIQEFLSGLPEDTVLLLLNAIHFQGFWRNKFDPSLTQRDSFHLDEQFTVPVEMMQARTYPLRWFLLEQPEIQVAHFPFKNNMSFVVLVPTHFEWNVSQVLANLSWDTLHPPLVWERPTKVRLPKLYLKHQMDLVATLSQLGLQELFQAPDLRGISEQSLVVSGVQHQSTLELSEVGVEAAAATSIAMSRMSLSSFSVNRPFLFFIFEDTTGLPLFVGSVRNPNPSAPRELKEQQDSPGNKDFLQSLKGFPRGDKLFGPDLKLVPPMEEDYPQFGSPK

How the values were obtained:
[1] = system: 6WI-1 mammary tumor cells; assay: Mouse ascites mammary tumor assay (6WI-1 isograft); format: in vivo; details: for % Inhibition Of Activity: 6WI-1 Acites Volume / % Inhibition Of Activity: 6WI-1 Body Weight / % Inhibition Of Activity: 6WI-1 Cell Prol: 6WI-1 mouse mammary ascites tumor; for Suppression of accumulation of cells and ascites fluid volume (anticancer activity): 1.0 μg peptide per day for 11 days
Description: The growth suppression of the mammary ascites tumor by AFP peptides and its fragments P149a, P149b and P149c, and control peptides were determined in non-estrogen dependent assays which measured tumor cell growth and ascites accumulation of 6WI-1 mammary transplanted NYLAR/nya mice. […] Tumor cell inocula included doses of 0.3, 1.0, and 3.0×10^6 cells which produced host mortality at 12-14 days which was lethal in 100% of the animals. Following peptide dose titration studies, mice inoculated with 6WI-1 mammary cells were injected with a previously-determined optimal dose of 1.0 μg peptide per day or saline for 11 days. On day 12 following inoculation, the total accumulated ascites fluid volume and tumor cells in the peritoneal cavity of each animal were harvested and the cell count determined.
Inoculation of mice with all three cell doses led to an increase in body weight from 25 g (day 0) to approximately […] by day 12, due to the accumulation of tumor cells and ascites fluid in the intraperitoneal cavity. An average cell count in accumulated ascites fluid on day 12 was greater than 10^8 cells/ml with a total ascites volume approximating 20 mls. Tumor cell proliferation in this model has been reported to correlate with the volume of ascites fluid accumulated.
The 6WI-1 mouse mammary tumor studies involving peptide and non-peptide treatment were further compared by histopathological analysis performed on hematoxylin/eosin stained tissue sections.

[2] = system: 6WI-1 mammary tumor cells; assay: 6WI-1 mammary tumor in 15-day old mouse pups (6 day assay); format: in vivo; parameters: % Inhibition Of Activity: 6WI-1 Pup Ascites: concentration or dose not given beside the values; details: mouse pups
From the text: As an alternative model of the 6WI-I mammary tumor in adult mice, an inocula of 1×10^6 tumor cells injected into 15-day old mouse pups provided a 6 day rather than a 12 day assay and replicated the same tumor growth suppression by GIP.

MCF-7 cells = assay: Estrogen-dependent MCF-7 foci formation assay; format: cell-based, human; parameters: % Inhibition Of Activity: MCF-7 foci formation: concentration or dose not given beside the values
From the text: Mizejewski et al., “Alpha-fetoprotein derived synthetic peptides: assay of an estrogen-modifying regulatory segment” Mol Cell Endocrinol 118:15-23 (1996). The P149 peptide inhibited the formation of tumor cell foci formed as a result of the accumulation of breast cancer cells which clump together due to loss of contact inhibition.

human platelets = assay: Platelet aggregation in human platelet-rich plasma; format: cell-based; parameters: % Inhibition Of Activity: Platelet Agg. ADP / % Inhibition Of Activity: Platelet Agg. AA / % Inhibition Of Activity: Platelet Agg. Coll: concentration or dose not given beside the values; details: for % Inhibition Of Activity: Platelet Agg. ADP: ADP-induced; for % Inhibition Of Activity: Platelet Agg. AA: arachidonic acid-induced; for % Inhibition Of Activity: Platelet Agg. Coll: collagen-induced; for Inhibition (%) Of Platelet Aggregation, Adenosine Diphosphate (ADP) 2.5 μM / Inhibition (%) Of Platelet Aggregation, Arachidonic Acid (AA) 0.3 mM / Inhibition (%) Of Platelet Aggregation, Collagen (COLL) 2 μg/ml / Inhibition (%) Of Platelet Aggregation, Epinephrine: peptide inhibitors 30 & 100 μM
Description: FIG. 9 presents exemplary data showing platelet aggregation modulation using 0.5 ml of normal human platelet-rich plasma (PRP) with varying amounts of P149 or P 149b using 2.5×10^6 platelets per reaction vessel.
FIG. 10 presents exemplary data showing platelet aggregation activation by arachidonic acid (AA) and collagen using P149-treated platelet suspensions • Panel A1: AA alone; • Panel A2: AA followed by epinephine (EPI) and EPI alone using P149b; • Panel A3: CD62P flow cytometry fluorescence quenching by P149; • Panel B1: collagen alone and collagen+P149; • Panel B2: collagen alone; collagen+P149a showing aggregation diminution.
GIP-derived peptide fragments and/or subfragments have been assayed for platelet aggregation by measuring light transmissions with an aggregometer using a stirred human platelet suspension. Kinlough-Rathbone et al., In: Platelet Aggregation in Measurements of Platelet Function, Eds. Harker L A, Zimmerman T S., Churchill Livingstone, London. pp. 64-87 (1983); and Whittle et al., “Specificity between the anti-aggregatory actions of prostacyclin, prostaglandin Eland D2 on platelets” In: Mechanisms of stimulus—response coupling in platelets, Eds. V. V. K., MacIntyre D E, Scully M F., New York and London: Plenum Press. pp. 109-115 (1985).
The ability of GIP and its fragments were individually examined for aggregation inhibition using citrated human platelet-rich plasma (PRP). The peptides were freshly dissolved in 0.15 M NaCl containing 2.5×10^6 platelets/ml. […]

[3] = system: immature mouse uterine growth; assay: E2-activated immature mouse uterine growth assay; format: in vivo; parameters: % Inhibition Of Activity: Uterine Growth: concentration or dose not given beside the values; details: mouse, in vivo
Description: FIG. 3 presents exemplary data showing the growth suppressive activities of the oligomeric forms of P149, cyclic versus linear, are depicted in various in vitro and in vivo models. Biological activity was determined by three growth-dependent bioassays, namely; • Panel-A and A1) an immature rodent uterine bioassay; • Panel-B and B 1) an in vitro MCF-7 foci assay; • Panel-C and C1) an in vitro tumor cell cytostatic assessment. […] See text for details. Scrambled peptide=P327. […]

[4] = system: MCF-7 and 6WI-1 tumor cells; assay: Tumor cell adhesion to ECM proteins in microtiter plates; format: cell-based, human, murine
Description: FIG. 8 presents exemplary data showing the inhibition of P149 in the cellular adhesion of cancer cells to extracellular matrix (ECM) proteins for both human MCF-7 breast cancer cells and for murine 6WI-1 ascites-adapted mammary tumor cells. The cellular adhesion assay was performed in 96-well microtiter plates (Nunc Company, Denmark, catalog #263339) and the wells were pre-coated with 100 microliters of each of the above-mentioned ECM proteins for 24 hours as previously determined. After adding tumor cells, the plates were then incubated at 37° C. for various times; while 6WI-1 cells usually required only 2-4 hours incubation for adhesion; MCF-7 cells required 24 hours for attachment following trypsinization. For both cell lines, the cell culture media contained 5% calf serum to ensure cell attachment. The plates were washed twice with Hank's Saline, fixed in 0.5 mL of 37% formaldehyde, stained with crystal violet and read at […] on a microplate reader. Inset: Using a CyQUANT® stain kit, (Hoechst Corp., Germany) the plates were first exposed to a freeze/thaw cycle at −70° C. for 24 hours and 37° C. for 10 minutes. CyQUANT® buffer solution (150 microliters) was added to each well, and the cell adhesion was measured by fluorescence spectroscopy and quantitated using an ImageQuant® plate scanner (Fluorimager 595, Molecular Dynamics, Sunnyvale, Calif.).
This attachment of GIP was a slightly weaker adhesion matrix than was gelatin, chondroitin sulfate, and poly-lysine which approximated 30-35%. Using P149, the optimal amount of peptide required to inhibit tumor cell adhesion was determined by absorbing soluble peptide (1.0 pg to 100 μg) to the walls of microtiter plates. A constant number of MCF-7 tumor cells (i.e., for example, 1×10^5) were then added to the microtiter well and adhesion quantitated by fluorescence. […] The quantitation of MCF-7 and 6WI-1 cell adhesion in the presence of peptide versus peptide-free media was then determined on ECM-coated microtiter plates using 3 μg GIP/well as a competitive inhibitor. The P149 peptide was added to the wells immediately after the cells were dispensed and then the mixture was incubated as described. The AFP peptide was capable of cell adhesion inhibition in most of the ECM proteins in both tumor cell lines. Inhibition of mouse and human tumor cell adhesion was somewhat equivalent using collagen IV, fibrinogen, fibronectin, and thrombospondin. […] Thus, the GIP was found capable of eliciting different attachment inhibitions dependent on the type of ECM protein coating the wall of the microtiter plate and also the tumor cell type involved.

Estrogen fetotoxicity = assay: Estrogen fetotoxicity; parameters: concentration or dose not given beside the values; details: in vivo
[5] = system: human kidney tumor cell line
[6] = system: immature mouse uterine growth; assay: E2-activated immature mouse uterine growth assay; format: in vivo; parameters: concentration or dose not given beside the values

Row | Molecule | % Inhibition Of Activity: 6WI-1 Acites Volume [1] | % Inhibition Of Activity: 6WI-1 Body Weight [1] | % Inhibition Of Activity: 6WI-1 Cell Prol [1] | % Inhibition Of Activity: 6WI-1 Pup Ascites [2] | % Inhibition Of Activity: MCF-7 foci formation (MCF-7 cells) | % Inhibition Of Activity: Platelet Agg. ADP (human platelets) | % Inhibition Of Activity: Platelet Agg. AA (human platelets) | % Inhibition Of Activity: Platelet Agg. Coll (human platelets) | % Inhibition Of Activity: Uterine Growth [3] | % Inhibition Of Activity: Cell Adhesion [4] | % Inhibition Of Activity: Estrogen Fetotoxicty (Estrogen fetotoxicity) | % Inhibition Of Activity: Kidney tumor growth [5] | % Inhibition Of Activity: Uterine Growth, Enzymatic Fragments [6] | Suppression of accumulation of cells and ascites fluid volume (anticancer activity) [1] | Inhibition (%) Of Platelet Aggregation, Adenosine Diphosphate (ADP) 2.5 μM (human platelets) | Inhibition (%) Of Platelet Aggregation, Arachidonic Acid (AA) 0.3 mM (human platelets) | Inhibition (%) Of Platelet Aggregation, Collagen (COLL) 2 μg/ml (human platelets) | Inhibition (%) Of Platelet Aggregation, Epinephrine (human platelets) | other results
1 | HPEAKRMPCAEDYLSVVLNQLCVLEHKTPVSDRV (listed as Homo sapiens) [P263, reference compound] | 10% | 13% | 5% | 0% | 0% | 0% | 0% | 0% | 0% | 0% | 0% | 0% | 0% |  |  |  |  |  | % Inhibition Of Activity: 6WI-1 Peptide Combos ([1]; peptide combination): 0%
2 | MTPVNPGV (listed as Homo sapiens) [P149c] | 39% | 44% | 45% | 29% | 45% | 0% | 0% | 0% | 42% | 56% | 37% | 19% | 44% | significantly suppressed | No effect | No effect | No effect | No effect | Inhibition of platelet aggregations induced by ADP and collagen (human platelets): no significant inhibition; Platelet aggregation inhibition (human platelets; inducer not specified): lack inhibitory capabilities
3 | Risotcetin [reference compound] |  |  |  |  |  |  |  |  |  |  |  |  |  |  | 100% | 100% | 100% | 100% | 
4 | LSEDKLLACGEG (listed as Homo sapiens) [P149a] | 21% | 22% | 28% | 21% | 33% | 40% | 0% | 0% | 28% |  | 63% | 25% | 24% | but not P149a or P149b, significantly suppressed | 30-40 (biphasic % | No effect | No effect | No effect | 
5 | B1 |  |  |  |  |  |  |  |  |  |  |  |  |  |  | 85-90% | 100% | 90% | No effect | 
